One assay has as its system HT29. As to the kind of experiment: CellTiterGlo cell viability assay, HT29. To be noted: Homo sapiens, HT-29, 72 h, HT29, 72 h; for pEC50: read-out: Ab EC50; for inhibition at 198 µM: percentage inhibition at the highest concentration tested, read-out: Top Inhibit. Format: cell-based. A digest of the protocol:
(§1)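 Compounds, serially diluted 3.16-fold in DMSO and pre-warmed in media to 37 °C, were added to cells in duplicate (final 198 μM–19.8 nM, 0.5% DMSO). Plates incubated 3 days in a CO2 incubator before CellTiterGlo readout.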

The test system of the next assay is K562. As to the kind of experiment: CellTiterGlo cell viability assay, K562. Format: cell-based. To be noted: Homo sapiens; for pEC50: read-out: Ab EC50. A digest of the protocol:
as §1

A further assay has as its system RL. Kind of assay: CellTiterGlo cell viability assay, RL. It counts as cell-based. To be noted: Homo sapiens, 72 h. The procedure, abridged: as §1
A further assay deals with HL-60. As to the kind of experiment: CellTiterGlo cell viability assay, HL-60. Format: cell-based. To be noted: Homo sapiens, HL-60, 72 h; for inhibition at 198 µM: read-out: Top Inh. The procedure, abridged: as §1
The next assay deals with MOLT-4. As to the kind of experiment: CellTiterGlo cell viability assay, MOLT-4. Format: cell-based. The procedure, abridged:
as §1

The test system of the next assay is Mia-Pa-Ca-2. Kind of assay: CellTiterGlo cell viability assay, Mia-Pa-Ca-2. It counts as cell-based. To be noted: Homo sapiens, MIA PaCa-2, Mia-Pa-Ca-2, 72 h; for pEC50: absolute EC50, read-out: Ab EC50; for inhibition at 198 µM: percentage inhibition at the highest concentration tested, read-out: Top Inhibit. As for the experimental part: A subset of compounds of the invention were assayed for their cytotoxic activity in an array of different solid tumours and haematological malignancies using the following assay.
In vitro viability assay were performed to assess the effects of compounds on cell viability in selected cell lines over 72 h using the CellTiterGlo (CTG, Promega-G7573) assay. The tests were performed in duplicates with treatment of compounds at 9 points, 3.16 folds titration in 96 well plates over ˜72 h. The compound starting concentrations were 198 μM. Cell viability assay using CellTiterGlo in 96-well plate were performed. Compound treatment 72 h, standard growth conditions, duplicates. Compounds were dissolved to 40 mM with thawed […]. Compounds were serially diluted at 3.16 fold in thawed DMSO, and warmed to 37° C. before being dissolved in media (2 μL+200 μL). After compounds were dissolved in media, media containing compounds were warmed to 37° C. in incubator and then compounds in media were added to cell plates (50 μL+50 μL) in duplicates. The compounds' final concentrations were from 198 μM to 19.8 nM. All compound solubilities were checked and recorded again, then the plates were transferred to CO2 tissue culture incubator immediately and incubated for 3 days. DMSO final concentration is 0.5%. The parent nucleoside in each case was tested as a comparator, as was an exemplary ProTide. The drugs of the ProTide class that were tested were as follows:
The following cell lines were tested and are referred to in the Table 1 below:
In Tables 2, 3 and 4, ‘Ab EC50’ refers to the absolute EC50 and ‘Top inhibit’ refers to the percentage inhibition achieved at the highest concentration tested.

The test system of a further assay is KG-1. Kind of assay: CellTiterGlo cell viability assay, KG-1. To be noted: Homo sapiens, KG-1, 72 h; for pEC50: Table 4 classes, read-out: Ab EC50; for inhibition at 198 µM: percentage inhibition at the highest concentration tested, read-out: Top Inhibit. Format: cell-based. A digest of the protocol: as §1
The next assay has as its system OVCAR 3. Kind of assay: CellTiterGlo cell viability assay, OVCAR 3. Format: cell-based. To be noted: Homo sapiens; for inhibition at 198 µM: OVCAR-3, 72 h, percentage inhibition at the highest concentration tested, read-out: Top Inhibit; for pEC50: OVCAR 3, 72 h, Table 4 classes, read-out: Ab EC50. A digest of the protocol:
as §1

The test system of another assay is RPMI-8226. Kind of assay: CellTiterGlo cell viability assay, RPMI-8226. Format: cell-based, Human. To be noted: Homo sapiens, RPMI-8226, 72 h. A digest of the protocol: as §1
The subject of the next assay is HepG2. As to the kind of experiment: CellTiterGlo cell viability assay, HepG2. It counts as cell-based. To be noted: Homo sapiens, HepG2, 72 h; for pEC50: Table 4 classes, read-out: Ab EC50; for inhibition at 198 µM: percentage inhibition at the highest concentration tested, read-out: Top Inhibit. A digest of the protocol:
as §1

The subject of another assay is MCF-7. As to the kind of experiment: CellTiterGlo cell viability assay, MCF-7. Format: cell-based. To be noted: Homo sapiens, MCF7, 72 h, MCF-7, 72 h, percentage inhibition at the highest concentration tested; read-out: Top Inhibit. The procedure, abridged: as §1
The test system of a further assay is CCRF-CEM. As to the kind of experiment: CellTiterGlo cell viability assay, CCRF-CEM. To be noted: Homo sapiens, 72 h; for pEC50: Table 4 classes, read-out: Ab EC50; for inhibition at 198 µM: percentage inhibition at the highest concentration tested, read-out: Top Inh. It counts as cell-based. The procedure, abridged:
as §1

The mark [1] stands for this setting: K562, 72 h, percentage inhibition at the highest concentration tested, read-out: Top Inh.
Setting [2] is: absolute EC50, numeric values, read-out: Ab EC50.
Setting [3] is: percentage inhibition at the highest concentration tested, read-out: Top Inh.
Setting [4] is: percentage inhibition at the highest concentration tested.
The mark [5] stands for this setting: Homo sapiens, MOLT-4, 72 h, percentage inhibition at the highest concentration tested, read-out: Top Inh.
Setting [6] is: Table 4 classes, read-out: Ab EC50.
[7] abbreviates: K562, K 562, 72 h, Table 4 classes.
The mark [8] stands for this setting: Homo sapiens; MOLT-4, 72 h, Table 4 classes; read-out: Ab EC50.

pEC50: −log10 of the molar value. Counter-ions that a name gives are not always drawn. Like-named read-outs stand apart in the source and are kept apart here. Where only a bound is given, the exact number is not on record here.

Regarding `C[C@H](NP(=O)(Oc1ccccc1)OP(=O)(O)OC[C@@H]1C[C@H](O)[C@H](n2cnc3c(N)ncnc32)O1)C(=O)OCc1ccccc1` (stereo partly drawn) [Example 6, 3′-Deoxyadenosine-5′-O-[phenyl(benzoxy-L-alaninyl)] Diphosphate Triethylammonium Salt], the negative-log EC50 (pEC50) was 4.61 in the assay on HT29 (absolute EC50, numeric values); 4.28 in the assay on K562 (K562, 72 h, absolute EC50, numeric values); 4.05 in the assay on RL (setting [2]); 4.20 with HL-60 (setting [2]); 4.85 in the assay with MOLT-4 (Homo sapiens; MOLT-4, 72 h, absolute EC50, numeric values; read-out: Ab EC50); 4.39 with Mia-Pa-Ca-2. In addition, the inhibition at 198 µM in the assay on HT29 was 82%; with K562 (setting [1]), 81%; with RL (setting [3]) it was 72%; in the assay with HL-60 (setting [4]), 80%; in the assay on MOLT-4 (setting [5]) it was 95%; in the assay with Mia-Pa-Ca-2, 95.7%.
With `C[C@H](NP(=O)(Oc1ccccc1)OP(=O)(O)OC[C@H]1O[C@@H](n2cnc3c(N)nc(Cl)nc32)[C@H](F)C1O)C(=O)OCC(C)(C)C` (stereo partly drawn) [Example 9, 2-Chloro-9-(2′-Deoxy-2′-fluoro-β-D-arabinofuranosyl)adenine-5′-O-[phenyl(neopentoxy-L-alaninyl)] Diphosphate Triethylammonium Salt], the pEC50 with KG-1 was greater than 6.70; in the assay with HT29 (Table 4 classes), 6.00 to 6.70; in the assay on OVCAR 3 it was less than 5.00; with RPMI-8226 (setting [6]) it was less than 5.00; in the assay on K562 (setting [7]), less than 5.00; in the assay with HepG2, 6.00 to 6.70. Further, the pEC50 with RL (setting [6]) was 6.00 to 6.70; in the assay on HL-60 (setting [6]) it was greater than 6.70; in the assay with MOLT-4 (setting [8]) it was greater than 6.70; in the assay with CCRF-CEM it was greater than 6.70. Moreover, the inhibition at 198 µM came out at 92% with KG-1; 70% in the assay with HT29; 43% in the assay with OVCAR 3; 81% in the assay with RPMI-8226 (setting [3]); 40% in the assay with K562 (setting [1]); 53% in the assay with HepG2. For the same compound, the inhibition at 198 µM in the assay on MCF-7 was 45%; in the assay on RL (setting [3]) it was 53%; with HL-60 (setting [4]) it was 96%; in the assay on MOLT-4 (setting [5]) it was 92%; with CCRF-CEM, 99%.
In the case of `C[C@@H](NP(=O)(Oc1ccccc1)OP(=O)(O)OC[C@H]1O[C@@H](n2cnc3c(N)nc(Cl)nc32)[C@H](F)C1O)C(=O)OCC(C)(C)C` (stereo partly drawn) [Example 14, 2-Chloro-9-(2′-Deoxy-2′-fluoro-β-D-arabinofuranosyl)adenine-5′-O-[phenyl(neopentoxy-D-alaninyl)] Diphosphate Triethylammonium Salt], the pEC50 in the assay with KG-1 was greater than 6.70; with HT29 (Table 4 classes), 6.00 to 6.70; in the assay with OVCAR 3 it was less than 5.00; in the assay with RPMI-8226 (setting [6]), less than 5.00; in the assay with K562 (setting [7]), less than 5.00; in the assay with HepG2, 6.00 to 6.70. For the same compound, the pEC50 with HL-60 (setting [6]), with MOLT-4 (setting [8]) and in the assay with CCRF-CEM was greater than 6.70 each time. Also, the inhibition at 198 µM in the assay with KG-1 came out at 93%; in the assay on HT29, 71%; in the assay on OVCAR 3, 43%; in the assay on RPMI-8226 (setting [3]) it was 78%; in the assay with K562 (setting [1]), 36%; in the assay on HepG2, 52%. Further, the inhibition at 198 µM is 48% with MCF-7; 49% in the assay on RL (setting [3]); 96% in the assay with HL-60 (setting [4]); 95% in the assay with MOLT-4 (setting [5]); 99% in the assay with CCRF-CEM.
In the case of `CCCCCCOC(=O)[C@H](C)NP(=O)(Oc1ccccc1)OP(=O)(O)OC[C@H]1O[C@@H](n2cnc3c(N)nc(Cl)nc32)[C@H](F)C1O` (stereo partly drawn) [Example 18, 2-Chloro-9-(2′-Deoxy-2′-fluoro-β-D-arabinofuranosyl)adenine-5′-O-[1-phenyl(hexoxy-L-alaninyl)] Diphosphate Triethylammonium Salt], the pEC50 in the assay with KG-1 was greater than 6.70; in the assay with HT29 (Table 4 classes), 6.00 to 6.70; with OVCAR 3 it was less than 5.00; with RPMI-8226 (setting [6]), less than 5.00; in the assay on K562 (setting [7]), less than 5.00; with HepG2, 6.00 to 6.70. In addition, the pEC50 with HL-60 (setting [6]), with MOLT-4 (setting [8]) and in the assay on CCRF-CEM was greater than 6.70 in each case. In addition, the inhibition at 198 µM was determined as 91% in the assay with KG-1; 66% in the assay with HT29; 47% in the assay with OVCAR 3; 84% in the assay with RPMI-8226 (setting [3]); 40% with K562 (setting [1]); 53% in the assay on HepG2. For the same compound, the inhibition at 198 µM in the assay on MCF-7 was found to be 44%; in the assay on RL (setting [3]), 48%; with HL-60 (setting [4]), 96%; in the assay with MOLT-4 (setting [5]) it was 88%; in the assay with CCRF-CEM, 99%.
In the case of `C[C@H](NP(=O)(OC[C@@H]1C[C@H](O)[C@H](n2cnc3c(N)ncnc32)O1)Oc1ccccc1)C(=O)OCc1ccccc1` (stereo partly drawn) [E, reference compound], the pEC50 in the assay with HT29 (absolute EC50, numeric values) was 4.97; in the assay with RPMI-8226 (read-out: Ab EC50, RPMI-8226, 72 h, absolute EC50, numeric values), 4.70; in the assay with K562 (K562, 72 h), 4.96; in the assay with RL (read-out: Ab EC50, RL, 72 h, absolute EC50, numeric values), 4.74; in the assay with HL-60 (read-out: Ab EC50, HL-60, 72 h, absolute EC50, numeric values), 4.51; in the assay with MOLT-4 (Homo sapiens, MOLT-4, 72 h, absolute EC50, numeric values, read-out: Ab EC50) it was 5.28. Besides, the pEC50 in the assay with Mia-Pa-Ca-2 is 5.10. Also, the inhibition at 198 µM was determined as 97% in the assay on HT29; 97.8% in the assay with RPMI-8226 (read-out: Top Inh, RPMI-8226, 72 h, percentage inhibition at the highest concentration tested); 87% in the assay on K562 (K562, 72 h, read-out: Top Inh, K562, 72 h, percentage inhibition at the highest concentration tested); 90.5% with RL (read-out: Top Inh, RL, 72 h, percentage inhibition at the highest concentration tested); 97% with HL-60; 96% in the assay on MOLT-4 (setting [5]). Besides, in the assay on Mia-Pa-Ca-2, the inhibition at 198 µM stood at 98%.
